From ChEMBL document CHEMBL1201862, “PubChem BioAssay data set” (2004) come the findings set out here.

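1) Cells in 96-well plates. 2) Compound, 48 h, 5 concentrations. 3) Linear interpolation between surrounding doses. 4) Unreached endpoint = highest concentration. At the GI50, growth is halved.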 Calls of active or inactive are those of the source. Rule as the data show it: active = GI50 up to about 1.1 µM and inactive = higher.

Assay in all cases: DTP human tumour cell line panel, 48 h
For test [1], the system named is OVCAR-4.
The test system of test [2] is Malme-3M.
For test [3], the system named is UACC-257.
For test [4], the system named is NCI-H226.
Test [5] concerns COLO 205.
For test [6], the system named is UACC-62.
Test [7] concerns EKVX.
Test [8] relates to IGROV-1.
Test [9] relates to NCI/ADR-RES.
For test [10], the system named is A498.
In test [11] the test system is NCI-H23.
For test [12], the system named is ACHN.
Test [13] has as its system CCRF-CEM.
In test [14] the test system is MCF7.
Test [15] concerns SF-268.
For test [16], the system named is OVCAR-8.
For test [17], the system named is OVCAR-5.
Test [18] concerns SK-OV-3.
Test [19] has as its system A549.
The test system of test [20] is KM12.

For `COc1cccc(C2C3=C(COC3=O)Oc3cc4c(cc32)OCO4)c1` (stereo not given), the GI50 (as a rule, the concentration giving 50% growth inhibition) is 0.424 µM (active) in [1]; 0.0248 µM (active) in test [2]; 0.0303 µM (active) in test [3]; 0.0611 µM (active) in test [4]; 0.0233 µM (active) in [5]; 0.0134 µM (active) in test [6]. Moreover, the GI50 in test [7] is 0.177 µM (active); in test [8], 0.0738 µM (active); in test [9], 0.0168 µM (active); in test [10], 0.0264 µM (active); in [11], 0.0653 µM (active); in test [12], 0.0432 µM (active). Besides, the GI50 is 0.0192 µM (active) in test [13]; 0.0246 µM (active) in [14]; 0.0575 µM (active) in [15]; 0.0421 µM (active) in [16]; 0.52 µM (active) in [17]; 0.0414 µM (active) in test [18]. The concentration for 50% growth inhibition (GI50) in test [19] is 0.0412 µM (active); in [20], < 0.0142 µM (active).
Consider `Clc1cccc(Cl)c1C1ON=C(c2ccccc2)N1C12CC3CC(CC(C3)C1)C2` (stereo not given), for which the GI50 was 25.3 µM (inactive) in test [1]; 14.8 µM (inactive) in test [2]; 3.29 µM (inactive) in [3]; 43.3 µM (inactive) in [4]; 11.9 µM (inactive) in test [5]; 24 µM (inactive) in test [6]. The GI50 in test [7] was 37.4 µM (inactive); in [8], 29.1 µM (inactive); in test [9], 15.2 µM (inactive); in test [10] it was 56.4 µM (inactive); in test [11], 31 µM (inactive); in test [12], 11.2 µM (inactive). Further, the GI50 in test [13] was 10.4 µM (inactive); in test [14] it was 0.121 µM (active); in [15], 82 µM (inactive); in test [16], 32.7 µM (inactive); in [17] it was > 100 µM (inactive); in [18] it was 98.2 µM (inactive). Further, the results for the GI50 in test [19] and in test [20] were 25.2 µM (inactive) and 1.63 µM (inactive), respectively.
As to `CCCCn1cnc2c(c(CC#N)nn2-c2ccccc2)c1=N`, the GI50 in [1] is 29.8 µM (inactive); in [2] it was 63.5 µM (inactive); in [3], 35.4 µM (inactive); in [4] it was 79.1 µM (inactive); in test [5] it was 30.7 µM (inactive); in test [6], 20.2 µM (inactive). The GI50 in test [7] is 48.8 µM (inactive); in test [8] it was 68.9 µM (inactive); in test [9], 41.2 µM (inactive); in test [10], 24.5 µM (inactive); in test [11], 51.9 µM (inactive); in test [12], 66.1 µM (inactive). In addition, the GI50 is 47.6 µM (inactive) in [13]; 43.2 µM (inactive) in test [14]; 71.1 µM (inactive) in [15]; 41.4 µM (inactive) in test [16]; > 100 µM (inactive) in [17]; > 100 µM (inactive) in test [18]. For the same compound, the GI50 in test [19] was 83.8 µM (inactive); in test [20], 43 µM (inactive).
With `O[C@@H]1C[C@H]2N3CC[C@@]2(c2cc4c(cc2C3)OCO4)[C@H]2O[C@@H]12`, the GI50 in test [1] is > 100 µM (inactive); in test [2] it was > 100 µM (inactive); in [3], 90.4 µM (inactive); in test [4] it was 0.0271 µM (active); in test [5], < 0.01 µM (active); in test [6] it was > 100 µM (inactive). In addition, the GI50 in test [7], in test [8], in test [9], in [10], in test [11] and in test [12] was > 100 µM (inactive) in each case. The GI50 in test [13], in test [14], in test [15], in test [16], in test [17] and in [18] was > 100 µM (inactive) in each case. The GI50 in test [19] and in [20] was > 100 µM (inactive) in each case.
For `CCCCCCCCCCCCCCCCCCNc1ccn(C2OC(COP(=O)(O)OCC3OC(n4ccc(NC(=O)CCCCCCCCCCCCCCCCC)nc4=O)C(OC(C)=O)C3OC(C)=O)C(OC(C)=O)C2OC(C)=O)c(=O)n1` (stereo not given), the GI50 in [1], in test [2], in [3], in test [4], in [5] and in test [6] was > 100 µM (inactive) each time. Also, the GI50 in test [7], in [8], in [9], in test [10], in [11] and in test [12] was > 100 µM (inactive) throughout. Moreover, the GI50 in [13], in [14], in test [15], in [16], in test [17] and in test [18] was > 100 µM (inactive) each time. Moreover, the GI50 in test [19] and in [20] was > 100 µM (inactive) throughout.
Consider `CC1=C(Br)C(=O)C(C)=C(Br)C1=O.Cc1c(O)c(Br)c(C)c(O)c1Br`, for which the GI50 was 1.79 µM (inactive) in test [1]; 2.1 µM (inactive) in [2]; 1.6 µM (inactive) in test [3]; 6.65 µM (inactive) in test [4]; 1.98 µM (inactive) in [5]; 5.55 µM (inactive) in [6]. Further, the GI50 in [7] is 1.85 µM (inactive); in [8], 7.83 µM (inactive); in [9] it was 4.31 µM (inactive); in test [10], 15.3 µM (inactive); in test [11] it was 2.21 µM (inactive); in [12], 1.68 µM (inactive). In addition, the GI50 in test [13] is 0.216 µM (active); in test [14], 1.96 µM (inactive); in test [15], 4.17 µM (inactive); in [16], 1.93 µM (inactive); in [17] it was 10.8 µM (inactive); in test [18], 15.6 µM (inactive). Besides, the GI50 in [19] is 18.3 µM (inactive); in [20], 19.4 µM (inactive).
As for `O=C1C(Cl)=C(Nc2ccc(S(=O)(=O)Nc3ccccn3)cc2)C(=O)c2ccccc21`, the GI50 in test [1] is 17.3 µM (inactive); in [2], 2.96 µM (inactive); in test [3] it was 5 µM (inactive); in test [4], 20.7 µM (inactive); in [5], 13.9 µM (inactive); in [6], 5.6 µM (inactive). In addition, the GI50 in test [7] is 9.4 µM (inactive); in [8], 5.93 µM (inactive); in test [9], 9.93 µM (inactive); in [10], 20.7 µM (inactive); in [11], 10.8 µM (inactive); in [12], 10.6 µM (inactive). Further, the GI50 was 3.68 µM (inactive) in [13]; 5.15 µM (inactive) in [14]; 8.2 µM (inactive) in [15]; 4.09 µM (inactive) in test [16]; 17.9 µM (inactive) in [17]; 17 µM (inactive) in [18]. Also, the GI50 in test [19] was 18.7 µM (inactive); in [20], 13.1 µM (inactive).
On to `Cc1ccc(CSC(=N)Nc2ccccc2)cc1C`, for which the GI50 in test [1] was 16.1 µM (inactive); in test [2] it was 17.1 µM (inactive); in [3], 17.4 µM (inactive); in test [4], 20.9 µM (inactive); in test [5], 16.3 µM (inactive); in test [6], 13.1 µM (inactive). Further, the GI50 in [7] is 26.4 µM (inactive); in test [8], 23.2 µM (inactive); in test [9], 20.4 µM (inactive); in test [10] it was 16.6 µM (inactive); in [11] it was 22.9 µM (inactive); in test [12], 33.3 µM (inactive). Also, the GI50 in [13] is 20.2 µM (inactive); in test [14] it was 18.7 µM (inactive); in [15] it was 17 µM (inactive); in test [16], 19 µM (inactive); in [17], 20.2 µM (inactive); in test [18], 24.8 µM (inactive). The GI50 in test [19] was 28.3 µM (inactive); in test [20] it was 19.5 µM (inactive).
Take `C=C(C(=O)OC)N1C(=O)CC(C)C1=O` (stereo not given): the GI50 in [1] was 18.2 µM (inactive); in test [2] it was 2.45 µM (inactive); in test [3], 12.3 µM (inactive); in test [4], 27 µM (inactive); in [5], 4.2 µM (inactive); in test [6], 15.2 µM (inactive). The GI50 in test [7] is 14.7 µM (inactive); in [8], 15.9 µM (inactive); in test [9] it was 15.6 µM (inactive); in test [10] it was 20.7 µM (inactive); in test [11], 17.9 µM (inactive); in test [12], 2.83 µM (inactive). For the same compound, the GI50 in test [13] is 1.7 µM (inactive); in [14], 10.3 µM (inactive); in [15], 16.7 µM (inactive); in test [16], 15.3 µM (inactive); in test [17], 15.1 µM (inactive); in test [18] it was 35.7 µM (inactive). For the same compound, the GI50 in test [19] is 20.9 µM (inactive); in test [20] it was 20.3 µM (inactive).
On to `CC1=C(C(=O)Nc2ccccc2)C(c2ccc(C)o2)C(C#N)=C(SCc2ccccc2)N1` (stereo not given), for which the GI50 in test [1] is > 72.3 µM (inactive); in test [2], 5.77 µM (inactive); in test [3], > 100 µM (inactive); in test [4] it was > 100 µM (inactive); in test [5], 31.3 µM (inactive); in test [6], 18.9 µM (inactive). Also, the GI50 in [7] is > 84.3 µM (inactive); in test [8], 52.6 µM (inactive); in test [9], 18.7 µM (inactive); in [10] it was > 81.5 µM (inactive); in test [11], > 100 µM (inactive); in test [12], > 100 µM (inactive). For the same compound, the GI50 is 13.2 µM (inactive) in test [13]; 19.8 µM (inactive) in test [14]; > 100 µM (inactive) in test [15]; > 100 µM (inactive) in test [16]; > 100 µM (inactive) in [17]; > 100 µM (inactive) in test [18]. Also, the GI50 in test [19] is > 90.4 µM (inactive); in test [20], 10.9 µM (inactive).
